Results as given in PMC8357487 (Current Research in Pharmacology and Drug Discovery, 2021).
Like-named read-outs stand apart in the source and are kept apart here.

Assays:
icSARS-CoV-2-mNG = assay: microbe, parasite or virus in culture; type: cell-based, SARS-CoV-2; conditions: for EC50: Severe acute respiratory syndrome coronavirus 2, Caco-2, 48 h, read-out: mean EC50, icSARS-CoV-2-mNG inhibition assay
[1] = Cytotoxicity, MTS method, Vero CCL-81; type: cell-based; conditions: African monkey, Vero CCL-81 cells
[2] = Cytotoxicity, MTS method, Calu-3; type: cell-based; conditions: human, Calu-3 cells
SARS-CoV-2 [3] = conditions: Caco-2 cells; ref Li et al., 2021a; cited from earlier work
[4] = Cytotoxicity, MTS method, Caco-2; type: cell-based; conditions: human, Caco-2 cells
SARS-CoV-2 [5] = assay: microbe, parasite or virus in culture; type: cell-based
[6] = Cytotoxicity, MTS method, Huh-7; type: cell-based, human; conditions: human, Huh-7 cells
[7] = monkeys; ref Warren et al., 2016; cited from earlier work
[8] = humans; ref Humeniuk et al., 2020; cited from earlier work
Huh-7 cells = assay: Cytotoxicity, MTS method, Huh-7; type: cell-based, human; conditions: MTS
[9] = Severe acute respiratory syndrome coronavirus 2, 48 h
[10] = Severe acute respiratory syndrome coronavirus 2, Caco-2, 72 h
[11] = Severe acute respiratory syndrome coronavirus 2, Calu-3, 72 h

Row | SMILES | EC50 difference of GS-441524 compared to remdesivir, icSARS-CoV-2-mNG assay (icSARS-CoV-2-mNG; Caco-2 cells) [fold] | EC50 (icSARS-CoV-2-mNG) [µM] | CC50 [1] [µM] | CC50 [2] [µM] | Difference in EC50 between GS-441524 and remdesivir (SARS-CoV-2 [3]) [fold] | CC50 [4] [µM] | EC50 (SARS-CoV-2 [5]; [9]) [µM] | EC90 (SARS-CoV-2 [5]; [9]) [µM] | EC50 (SARS-CoV-2 [5]; [10]) [µM] | EC90 (SARS-CoV-2 [5]; [10]) [µM] | EC50 (SARS-CoV-2 [5]; [11]) [µM] | EC90 (SARS-CoV-2 [5]; [11]) [µM] | CC50 [6] [µM] | plasma half-life [7] | plasma half-life [8] [h] | Cytotoxicity in words (Huh-7 cells)
1 | N#C[C@@]1(c2ccc3c(N)ncnn23)O[C@H](CO)[C@@H](O)[C@H]1O [GS-441524] | 70 | 1.3 | > 100 | > 100 | 6 | > 100 | 0.8 | 1.6 | 0.08 | 1.42 | 0.25 | 2.35 | > 100 |  |  | 
2 | CCC(CC)COC(=O)[C@H](C)N[P@](=O)(OC[C@H]1O[C@@](C#N)(c2ccc3c(N)ncnn23)[C@H](O)[C@@H]1O)Oc1ccccc1 [Remdesivir] |  | 0.018 |  | 72.8 |  | > 100 | 0.7 | 1.7 | 0.001 | 0.022 | 0.11 | 0.49 | 2.1 | about 0.4 h | ~1 | quite toxic
